Measurements from patent publication US20240100021A1, “Combination Therapy Schedules to Treat Cancer” (priority 2021, published 2024).
Read-outs that look alike come from different tables or passages of the source.

How the values were obtained:
[1] = cancer patients, cited from earlier work
[2] = system: OCI-AML3 cells; experiment: MTT cell proliferation assay; format: cell-based; details: continuous exposure 48 hrs, 0.038 μM Bis, 0.26 μM Ara-C, 0.3 μM ABT199, 14 nM Clad, alone or combined, versus control cells
[3] = system: MOLM14 cells; experiment: MTT cell proliferation assay; format: cell-based; details: 48 hrs, 0.038 μM Bis, 0.45 uM Ara-C, 6.3 nM ABT199, alone or combined, versus control
[4] = cited from earlier work
[5] = animals; cited from earlier work
[6] = system: tumor-cytostatic macrophages; details: activation of tumor-cytostatic macrophages (Wang et al. 1984); cited from earlier work
[7] = system: double-stranded DNA; details: physiological conditions; cited from earlier work
[8] = cited from earlier work; remark: listed apart in the source
[9] = cited from earlier work; remark: listed apart in the source
[10] = cited from earlier work; remark: listed apart in the source
[11] = patients receiving the drug (Myers et al. 1984); cited from earlier work
[12] = cited from earlier work; remark: listed apart in the source
[13] = cited from earlier work; remark: listed apart in the source
[14] = predominantly to albumin; cited from earlier work
[15] = isolated human hepatocytes, in vitro; cited from earlier work
[16] = system: PARP1 and caspase 3 cleavage in MOLM14 cells; experiment: Western blot of apoptosis markers; format: cell-based; details: 48 hrs
[17] = 90 min infusion, 260 mg/m^2, biphasic elimination
[18] = 5 day schedule of 60 min infusions
[19] = three phases of elimination (Alberts et al. 1983)
[20] = trial with doses of 80-250 mg/m^2
[21] = triphasic elimination, first of three single dose studies
[22] = triphasic elimination, last of three single dose studies
[23] = triphasic elimination, second of three single dose studies
[24] = hairy cell leukemia, 0.09 mg/kg/day continuous intravenous infusion over 7 days
[25] = pediatric ALL or AML, 52 mg/m^2, noncompartmental analysis

For Nc1nc(F)nc2c1ncn2[C@@H]1O[C@H](CO)[C@@H](O)[C@@H]1O [2-fluoro-ara-A], the “factor of increase of plasma trough levels” value ([1]; 5-day treatment schedule, 25 mg 2-fluoro-ara-AMP/m^2 daily over 30 minutes) is listed as “about 2” and the terminal half-life [1] is listed as “approximately 20 hours”.
In the case of Nc1ccn([C@@H]2O[C@H](CO)[C@@H](O)[C@@H]2O)c(=O)n1 [Ara-C, 1β-arabinofuranosylcytosine], the cell proliferation [2] is listed as 76%, the cell proliferation [3] is listed as 89% and the “plasma radioactivity accounted for by inactive metabolite ara-U” value ([4]; after the distributive phase) is listed as “more than 80%”. For the same molecule, the “half-life of initial distributive phase” value ([4]; intravenous, biphasic elimination) was “about 10 minutes” and the “share of urinary radioactivity excreted as ara-U” value ([4]; within 24 hours) was “approximately 90%”.
For C(=N\NC1=NCCN1)/c1c2ccccc2c(/C=N/NC2=NCCN2)c2ccccc12.Cl.Cl [Bis, 9,10-anthracenedicarboxaldehyde bis[(4,5-dihydro-1H-imidazol-2-yl)hydrazine] dihydrochloride], the cell proliferation [2] is given as 80%, the cell proliferation [3] is given as 79% and the cardiotoxicity [5] is given as “not cardiotoxic”. The “minimal effective in vivo dose” value [6] was 25 mg/kg, the affinity constants [7] was “above 10^6 M^−1” and the plasma concentration ([8]; 72-hr infusion study, dose 56 mg/m^2) was 12 ± 6 ng/mL. The plasma concentration ([8]; 72-hr infusion study, dose 260 mg/m^2) was 55 ± 8 ng/mL, the plasma clearance ([8]; 72-hr infusion study) was 1306±179 ml/min/m^2 and the “urinary excretion of the dose” value ([8]; 72-hr infusion study, in 24 hr) was 4.6%. The “administered dose excreted unchanged in the urine” value ([8]; 90 min infusion, 260 mg/m^2, after 24 hr) was 11.3%, the initial half-life [8, 17] was 1.08 ± 0.25 h and the terminal half-life [8, 17] was 19.03 ± 3.77 h. For the same molecule, the plasma clearance ([8]; 90 min infusion, 260 mg/m^2) was 735 ml/min/m^2, the “steady state volume of distribution (Vdss)” value ([8]; 90 min infusion, 260 mg/m^2) was 1845 L/m^2 and the “dose excreted in the urine” value [8, 18] was 7.1%. For the same molecule, the “t½ α” value [8, 18] was 0.9 h, the “t½ β” value [8, 18] was 9.7 h and the “dose excreted in the urine” value ([8]; human, in vivo) was “Less than 7%”. The “area under the plasma concentration x time curve” value ([8]; intravenous dose 260 mg/m^2) was 4400 µg·h/mL, the “area under the plasma concentration x time curve” value ([8]; intravenous dose 340 mg/m^2) was 5700 µg·h/mL and the volume of distribution ([8]; one report, interpreted as tissue sequestration) was 687 L/m^2. The “beta phase of elimination” value [8, 19] was “approximately 1.5 hours”, the “initial distributive phase of elimination” value [8, 19] was 6 min and the “administered dose found in the urine” value ([8]; trial with doses of 80-250 mg/m^2, after 96 hr) was 3.4±1.1%. The “calculated volume of distribution” value [8, 20] was 42.1 ± 5.9 L/kg, the clearance [8, 20] was 17.425 ± 0.85 mL/min/kg and the initial half-life [8, 20] was 0.6 h. The terminal half-life [8, 20] was 24.7 h, the “t½ α” value [8, 21] was 0.0573 h and the “t½ β” value [8, 21] was 1.33 h. For the same molecule, the “t½ γ” value [8, 21] was 26.13 h, the “t½ α” value [8, 22] was 0.1 h and the “t½ β” value [8, 22] was 1.9 h. The “t½ γ” value [8, 22] was 43.9 h, the “t½ α” value [8, 23] was 0.05 h and the “t½ β” value [8, 23] was 1 h. For the same molecule, the “t½ γ” value [8, 23] was 8 h, the “bound to plasma proteins” value [9] was “More than 95%” and the maximally tolerated dose ([10]; daily×5, repeat every 4 weeks (Spiegel et al. 1982)) was 80 mg/m^2. For the same molecule, the maximally tolerated dose ([10]; monthly (every 3-4 week) (Von Hoff et al., 1981b)) was 260 mg/m^2, the maximally tolerated dose ([10]; monthly, patients with poor bone marrow reserve (Von Hoff et al., 1981b)) was 240 mg/m^2 and the maximally tolerated dose ([10]; weekly×3 (Alberts et al. 1982)) was 200 mg/m^2. The maximally tolerated dose ([10]; weekly×3, patients with poor bone marrow reserve (Alberts et al. 1982)) was 150 mg/mg^2, the maximally tolerated dose ([10]; weekly×3, repeat every 4-5 week (B.-S. Yap et al. 1982)) was 150 mg/m^2 and the “ejection fraction, radioangiocardiographic monitoring” value [11] was “no decrease in ejection fraction”. For the same molecule, the electrocardiographic changes [11] was “No patients experienced electrocardiographic changes”.
In the case of Nc1nc(Cl)nc2c1ncn2[C@H]1C[C@H](O)[C@@H](CO)O1 [Clad, 2-chloro-6-amino-9-(2-deoxy-β-D-erythropentofuranosyl) purine], the cell proliferation [2] is given as 87%, the mean terminal half-life ([12]; 2 hour infusion 0.12 mg/kg, normal renal function) is given as 5.4 h and the mean clearance ([12]; 2 hour infusion 0.12 mg/kg) is given as 16.3 ± 7.03 mL/min/kg. The “mean steady-state volume of distribution” value ([12]; 2 hour infusion 0.12 mg/kg) was 4.5 ± 2.8 L/kg, the average half-life ([12]; after intravenous administration, multi-exponential decline) was 6.7 ± 2.5 h and the “mean steady-state serum concentration” value [12, 24] was 5.7 ng/mL. The systemic clearance [12, 24] was 11.06 mL/min/kg, the “mean end-of-infusion plasma concentration” value ([12]; hematologic malignancies, 2 hour infusion 0.12 mg/kg) was 48 ± 19 ng/mL and the “apparent volume of distribution” value ([12]; human, in vivo) was “approximately 9 L/kg”. The “cerebrospinal fluid concentrations relative to plasma” value ([12]; one report) was “approximately 25%”.
In the case of Nc1nc(Cl)nc2c1ncn2[C@@H]1O[C@H](CO)[C@@H](O)[C@@H]1F [clofarabine, 2-Chloro-9-(2-deoxy-2-fluoro-beta-D-arabinofuranosyl)-9H-purin-6-amine], the “dose excreted in the urine unchanged” value ([13]; 24-hour urine collections, pediatric studies) is given as 49-60%, the systemic clearance [13, 25] is given as 28.8 L/h/m^2 and the “volume of distribution at steady-state” value [13, 25] is given as 172 L/m^2. The terminal half-life ([13]; pediatric ALL or AML, 52 mg/m^2) was 5.2 h, the “bound to plasma proteins” value [14] was 47% and the metabolism [15] was 0.2%.
In the case of ABT199, the cell proliferation [2] is reported as 79%, the cell proliferation [3] is reported as 77% and the “cleavage of PARP1 and caspase 3” value [16] is reported as “caused cleavage of PARP1”.
